Measured values as given in patent EP0995757A2, “Bivalent inhibitors of the proteasome” (Max-Planck-Gesellschaft zur Förderung der Wissenschaften …, priority 1998, dated 2000).
Where a SMILES comes first, the peptide text is derived from it.

What was measured:
yeast 20S proteasome = molecular target: T1, yeast 20S proteasome (Saccharomyces cerevisiae, UniProt P25043+P30656+P38624); assay: X-ray structure analysis of proteasome/inhibitor complexes (crystal soaking); parameters: species or system S. cerivisiae; details: crystals soaked with 5 mM inhibitor for 12h, no competing substrate
T1 construct: Three of the seven different β-type subunits are processed at the N-terminal nucleophile, the threonine-1 residue; from tissue; host or cells: Saccharomyces cerevisiae (natural 20S complex)
Experimental: Crystals of […] proteasomes from S. cerivisiae were grown in hanging drops at 24 °C as described previously (Groll et al., Nature 386, 463-471, 1997). The protein concentration used for crystallization was 40 mg/ml in 10 mM Tris-HCl (pH 7.5) and 1 mM EDTA. The drops contained 4 µl protein and 2 µl reservoir solution with 30 mM magnesium acetate, 100 mM morpholino-ethane-sulphonic acid (pH 6.5) and 11 % MPD. The inhibitors were soaked with a final concentration of 5 mM for 12h. Data were collected using synchrotron radiation with λ = 1.1 Å on the BW6-beamline at the DESY-Centre/Hamburg/Germany (Table 1). Crystals were soaked in a cryoprotecting buffer (30% MPD, 28 mM magnesium acetate, 100 mM morpholino-ethane-sulfonic acid (pH 6.9) and frozen in a stream of cold nitrogen gas at 90 K (Oxford Cryo Systems). X-ray intensities were evaluated by using the MOSFILM program package (version 5.3) and data reduction was performed with CCP4. The anisotropy of diffraction was corrected by an overall anisotropic temperature factor by comparing observed and calculated structure amplitudes using X-PLOR (Brunger, A. (1992) X-PLOR: A System for X-Ray Crystallography and NMR, version 3.1; Yale University Press, New Haven, CT). Electron density was averaged 10 times over the 2-fold non crystallographic symmetry axis using MAIN (Turk, D., Ph. D. Thesis, Technical University, Munich, 1992). […]

yeast proteasome β2/β2' [1] = molecular target: T2, yeast proteasome β2/β2' (Saccharomyces cerevisiae, UniProt P25043); assay: Proteasome assay, trypsin-like activity (fluorogenic substrate Bz-Phe-Val-Arg-AMC); format: biochemical, Saccharomyces cerivisiae; parameters: from tissue; host or cells: Saccharomyces cerevisiae (natural complex from yeast; I conclude this from 'proteasome from'); details: for increase in binding affinity: compared to the monovalent inhibitors 1, 2, 3 and 5, β2/β2'; for IC50: trypsin-like activity, Bz-Phe-Val-Arg-AMC 8 µM, inhibitor incubated 1 h at 37°C, Tris-buffer pH 7.5
Experimental: (§1) A solution of proteasome from Saccharomyces cerivisiae in Tris-buffer (pH 7.5; 450 µl; 6.67 nM for PGPH, 5.56 nM for trypsin-like and 1.11 nM for chymotrypsin-like activity) was incubated with the inhibitors at varying concentrations ([…]) for 1 h at 37°C. The fluorogenic substrates for PGPH (Z-Leu-Leu-Glu-βNA, 40 µM), trypsin-like (Bz-Phe-Val-Arg-AMC, 8 µM) and chymotrypsin-like assays (Suc-Leu-Leu-Val-Tyr-AMC, 8 µM) were dissolved in the same Tris-buffer with a minimum amount of DMSO and added to the enzyme solution at 37 °C to reach a final volume of 500 µl. Fluorescence excitation/emission wavelengths were 360 nm/460 nm for AMC and 335 nm/410 nm for βNA. The rates of hydrolysis were monitored by the fluorescence increase and the initial linear portions of curves (100-300 sec) were used to calculate the IC50 values.

yeast proteasome β5/β5' [2] = molecular target: T3, yeast proteasome β5/β5' (Saccharomyces cerevisiae, UniProt P30656); assay: Proteasome assay, chymotrypsin-like activity (fluorogenic substrate Suc-Leu-Leu-Val-Tyr-AMC); format: biochemical, Saccharomyces cerivisiae; parameters: from tissue; host or cells: Saccharomyces cerevisiae (natural complex from yeast; I conclude this from 'proteasome from'); details: for IC50: chymotrypsin-like activity, Suc-Leu-Leu-Val-Tyr-AMC 8 µM, inhibitor incubated 1 h at 37°C, Tris-buffer pH 7.5; for increase in binding affinity: compared to the monovalent inhibitors 1, 2, 3 and 5, β5/β5'
Experimental: as §1

yeast proteasome β1/β1' [3] = molecular target: T4, yeast proteasome β1/β1' (Saccharomyces cerevisiae, UniProt P38624); assay: Proteasome assay, PGPH activity (fluorogenic substrate Z-Leu-Leu-Glu-βNA); format: biochemical, Saccharomyces cerivisiae; parameters: Three of the seven different β-type subunits are processed at the N-terminal nucleophile, the threonine-1 residue; from tissue; host or cells: Saccharomyces cerevisiae (natural complex from yeast; I conclude this from 'proteasome from'); details: Z-Leu-Leu-Glu-βNA 40 µM, inhibitor incubated 1 h at 37°C, Tris-buffer pH 7.5
Experimental: as §1

yeast proteasome β1/β1' [4] = molecular target: T4, yeast proteasome β1/β1'; assay: as above; format: biochemical; parameters: Three of the seven different β-type subunits are processed at the N-terminal nucleophile, the threonine-1 residue; endogenous in cells; host or cells: Saccharomyces cerevisiae; details: Z-Leu-Leu-Glu-βNA 40 µM, inhibitor incubated 1 h at 37°C, Tris-buffer pH 7.5
Experimental: as §1

yeast proteasome β5/β5' [5] = molecular target: T3, yeast proteasome β5/β5'; assay: Proteasome assay, chymotrypsin-like activity (fluorogenic substrate Suc-Leu-Leu-Val-Tyr-AMC); format: biochemical; parameters: endogenous in cells; host or cells: Saccharomyces cerevisiae; details: Suc-Leu-Leu-Val-Tyr-AMC 8 µM, inhibitor incubated 1 h at 37°C, Tris-buffer pH 7.5
Experimental: as §1

yeast proteasome β2/β2' [6] = molecular target: T2, yeast proteasome β2/β2'; assay: Proteasome assay, trypsin-like activity (fluorogenic substrate Bz-Phe-Val-Arg-AMC); format: biochemical; parameters: endogenous in cells; host or cells: Saccharomyces cerevisiae; details: Bz-Phe-Val-Arg-AMC 8 µM, inhibitor incubated 1 h at 37°C, Tris-buffer pH 7.5
Experimental: as §1

| Compound | active sites occupied by the inhibitory head group in the X-ray structure (yeast 20S proteasome) | increase in binding affinity (yeast proteasome β2/β2' [1]) | increased activity (yeast proteasome β2/β2' [1]; homobivalent versus related monovalent inhibitors, tryptic activity β2/β2') [fold] | IC50 (yeast proteasome β2/β2' [1]) [µM] | IC50 (yeast proteasome β5/β5' [2]) [µM] | IC50 (yeast proteasome β1/β1' [3]) [µM] | increase in binding affinity (yeast proteasome β5/β5' [2]) | IC50 (yeast proteasome β1/β1' [4]) [µM] | IC50 (yeast proteasome β5/β5' [5]) [µM] | IC50 (yeast proteasome β2/β2' [6]) [µM] | increased activity (yeast proteasome β5/β5' [2]; homobivalent versus related monovalent inhibitors, chymotryptic activity β5/β5') [fold] |
| --- | --- | --- | --- | --- | --- | --- | --- | --- | --- | --- | --- |
| (PEG)19-25-[NH-CO-(CH2)2-CO-Arg- Val-Arg-H]2 [compound 6] | only in the two β2 and β2' active sites | about two orders of magnitude | 100 | 0.071 | > 100 | > 100 | – | – | – | – | – |
| HOOC-(CH2)2-CO-NH-(PEG)19-25-NH-CO-(CH2)2-CO-Arg-Val-Arg-H [compound 5] | – | – | – | 8.2 | > 100 | > 100 | – | – | – | – | – |
| (PEG)19-25-[NH-CO-(CH2)2-CO-Arg-Val-Arg-H][NH-CO-(CH2)2-CO-Leu-Leu-Nle-H] [compound 7] | – | about two orders of magnitude | – | 0.097 | 0.031 | > 100 | about two orders of magnitude | – | – | – | – |
| HOOC-(CH2)2-CO-NH-(PEG)19-25-NH-(CH2)2-CO-Leu-Leu-Nle-H [compound 3] | – | – | – | > 100 | 1.8 | > 100 | – | – | – | – | – |
| CC(=O)N[C@@H](CCCNC(=N)N)C(=O)N[C@H](C(=O)N[C@H](C=O)CCCNC(=N)N)C(C)C [compound 2, Ac-Arg-Val-Arg-H] (Ac-Arg-Val-Arg-aldehyde) | – | – | – | – | – | – | – | > 100 | > 100 | 6.4 | – |
| (PEG)19-25-[NH- CO- (CH2)2- CO-Leu-Leu-Nle-H]2 [compound 4] | occupies all six active sites | – | – | > 100 | 0.017 | > 100 | about two orders of magnitude | – | – | – | 100 |
